Earlier results, collected in patent US20080253985A1, “Compositions for Lowering Serum Cholesterol and/or Triglycerides” (priority 2005, published 2008).
Read-outs that look alike come from different tables or passages of the source.

Legend:
[1] = dose of 40 mg
[2] = hoFH patients; ezetimibe 10 mg/day added to atorvastatin or simvastatin 80 mg/day
[3] = clinical studies, dosages of 80 mg/day or greater

In the case of O=C(NC1CCN(CCCCC2(C(=O)NCC(F)(F)F)c3ccccc3-c3ccccc32)CC1)c1ccccc1-c1ccc(C(F)(F)F)cc1 [BMS-201038, N-(2,2,2-Trifluorethyl)-9-[4-[4-[[[4′-(trifluoromethyl)[1,1′biphenyl]-2-Yl]carbonyl]amino]-1-piperidinyl]butyl]9H-fluorene-9-carboxamide], the adverse events (patients treated with 25 mg/day) is given as “gastrointestinal disturbances, abnormalities in liver function, and hepatic steatosis”.
In the case of CC(C)c1c(C(=O)Nc2ccccc2)c(-c2ccccc2)c(-c2ccc(F)cc2)n1CCC(O)CC(O)CC(=O)O (centres unmarked) [atorvastatin, 7-[2-(4-fluorophenyl)-5-(1-methylethyl)-3-phenyl-4-(phenylcarbamoyl)-1H-pyrrol-1-yl]-3,5-dihydroxy-heptanoic acid], the “patients achieving goal attainment, LDL <70 mg/dL” value [1] is listed as 23%.
For O=C1[C@H](CC[C@H](O)c2ccc(F)cc2)[C@@H](c2ccc(O)cc2)N1c1ccc(F)cc1 [ezetimibe], the “total reduction of LDL-C levels” value [2] is listed as 27%.
In the case of Cc1cc(C)c2c3ccccc3n(Cc3ccc([C@@H](C(=O)N[C@H](CO)c4ccccc4)C4CCCC4)cc3)c2n1 [implitapide, (2S)-2-cyclopentyl-2-[4-[(2,4-dimethyl-9H-pyrido[2,3-b]indol-9-yl)methyl]phenyl]-N-[(1S)-2-hydroxy-1-phenylethyl]ethanamide], the adverse events [3] is listed as “gastrointestinal disturbances, abnormalities in liver function, and hepatic steatosis” and the therapeutic efficacy [3] is listed as “therapeutically effective”.
